Results taken from patent publication US20240148895A1, “ANTIBODY-DRUG CONJUGATE” (Eisai R&D Management Co., Ltd., priority 2022, published 2024).

System: AsPC-1/Cas9 cell line (human pancreatic cancer cell line AsPC-1)
Assay: AsPC-1/Cas9 growth inhibition assay
Type: cell-based
Conditions: 5 days culture, CellTiter Glo 2.0, read-out: IC50 (Absolute IC50, 50% inhibition of cell growth)
Protocol: Human pancreatic cancer cell line AsPC-1 (ATCC Number CRL1682) was infected with Edit-R Lentiviral hCMV-Blast-Cas9 Nuclease Particle (Dharmacon, VCAS10124) in the presence of 8 μg/ml of Hexadimethrine bromide (Sigma, H9268), and after 24 hours it was exposed to 10 μg/ml of Blastcidin S (Thermo, A11139) to remove the uninfected cells, thereby establishing an AsPC-1/Cas9 cell line. The cells were maintenance cultured in a 5% CO2 incubator (37° C.) using RPMI-1640 (FujiFilm-Wako Pure Chemical Industries) containing 10% fetal bovine serum (FBS: SIGMA 173012) and penicillin/streptomycin (FujiFilm-Wako Pure Chemical Industries) (hereunder referred to simply as “culture medium”). After adding 25 μL of AsPC-1/Cas9 cell suspension prepared to 3.2×10^4 cells/mL using culture medium into each well of a 384-well plate (Greiner 781091), the cells were cultured overnight in a 5% CO2 incubator (37° C.). On the following day, 25 μL of the test substance diluted with culture medium was added to each well, and culturing was continued for 5 days in a 5% CO2 incubator (37° C.). Next, 25 μL of CellTiter Glo™ 2.0 (Promega) was added to each well, and the plate contents were mixed for 5 minutes using a plate mixer. The plate was stationed for 10 minutes at room temperature while shielded from light, and then the luminous intensity was measured with an ENVISION™ (Perkin-Elmer). The luminescence value of the wells with addition of test substance was determined as a relative value, with 100% as the luminescence value of the wells with cells but without addition of the test substance and 0% as the luminescence value of the wells without cells. A plot of test substance concentration against luminescence value % approximated a 4-parameter logistic curve, and the test substance concentration necessary for 50% inhibition of cell growth (Absolute IC50) was calculated, and is shown in Table 10. In Table 10, the antibodies listed as “CEACAM6_#84.7” are the anti-CEACAM6 antibody of Example 301-1, the antibodies listed as “003” are the anti-folate receptor α antibody of Example 301-2, and the antibodies listed as “345A12” are the anti-mesothelin antibody of Example 301-3.
According the same method as in the AsPC-1/Cas9 growth inhibition assay described in Example 313 above, the test substance concentration necessary for 50% inhibition of cell growth (Absolute IC50) in the ADC described in Example 318 was calculated and is shown in Table 12.

Molecule | IC50 [nM]
2-Cyclopropoxy-2-(2-(4-(((2S,5R)-2,5-dimethylpiperazin-1-yl)methyl)piperidin-1-yl)-6-(4-methoxy-1-methyl-6-oxo-1,6-dihydropyridin-3-yl)quinazolin-4-yl)-2-phenylethyl methyl(2-(methylamino)ethyl)carbamate [Example 34] | 0.083
4-(2-(4-Amino-4-methyl-[1,4′-bipiperidin]-1′-yl)-4-(1-cyclopropoxy-2-hydroxy-1-phenylethyl)quinazolin-6-yl)-6-methyl-1,6-dihydro-7H-pyrrolo[2,3-c]pyridin-7-one [Example 27] | < 0.015
CCn1c(=O)nc(C(CO)(OC)c2ccccc2)c2cc(-c3cc(C)c(=O)n(C)c3)ccc21 (racemic) [Example 17, 6-(1,5-Dimethyl-6-oxo-1,6-dihydropyridin-3-yl)-1-ethyl-4-(2-hydroxy-1-methoxy-1-phenylethyl)quinazoline-2(1H)-one] | 0.04
Cc1cc(-c2ccc3nc(NS(C)(=O)=O)nc(C(CO)(CC4CC4)c4ccccn4)c3c2)cn(C)c1=O (stereo not shown) [Example 5, N-(4-(1-Cyclopropyl-3-hydroxy-2-(pyridin-2-yl)propan-2-yl)-6-(1,5-dimethyl-6-oxo-1,6-dihydropyridin-3-yl)quinazolin-2-yl)methanesulfonamide] | 0.035
Cc1cc(-c2ccc3nc(N=S(C)(C)=O)nc(C(CO)(CC4CCOCC4)c4ccccc4)c3c2)cn(C)c1=O (stereo not shown) [Example 6] | 0.029
Cc1cc(-c2ccc3nc(N=S(C)(C)=O)nc(C(CO)(CC(C)C)c4ccccc4)c3c2)cn(C)c1=O (stereo not shown) [Example 7, 5-(2-((Dimethyl(oxo)-16-sulfanylidene)amino)-4-(1-hydroxy-4-methyl-2-phenylpentan-2-yl)quinazolin-6-yl)-1,3-dimethylpyridin-2(1H)-one] | 0.051
Cc1cc(-c2ccc3nc(NS(C)(=O)=O)nc(C(CO)(CC4CCC4)c4ccccc4)c3c2)cn(C)c1=O (stereo not shown) [Example 8, N-(4-(1-Cyclobutyl-3-hydroxy-2-phenylpropan-2-yl)-6-(1,5-dimethyl-6-oxo-1,6-dihydropyridin-3-yl)quinazolin-2-yl)methanesulfonamide] | 0.043
Cc1cc(-c2ccc3cc(N=S(C)(C)=O)nc(C(CO)(OC4CC4)c4ccccc4)c3c2)cn(C)c1=O (stereo not shown) [Example 9, 5-(1-(1-Cyclopropoxy-2-hydroxy-1-phenylethyl)-3-((dimethyl(oxo)-16-sulfanylidene)amino)isoquinolin-7-yl)-1,3-dimethylpyridin-2(1H)-one] | 0.075
Cc1cc(-c2ccc3nc(NC(=O)N4CC(O)C4)nc(C(CO)(OC4CC4)c4ccccc4)c3c2)cn(C)c1=O (stereo not shown) [Example 10, N-(4-(1-Cyclopropoxy-2-hydroxy-1-phenylethyl)-6-(1,5-dimethyl-6-oxo-1,6-dihydropyridin-3-yl)quinazolin-2-yl)-3-hydroxyazetidine-1-carboxamide] | 0.036
CCCC(CO)(c1ccccn1)c1[nH]c(=O)cc2ccc(-c3cc(C)c(=O)n(C)c3)cc12 (stereo not shown) [Example 11, 7-(1,5-Dimethyl-6-oxo-1,6-dihydropyridin-3-yl)-1-(1-hydroxy-2-(pyridin-2-yl)pentan-2-yl)isoquinoline-3(2H)-one] | 0.039
CCOCCC(CO)(c1ccccn1)c1nc(N)nc2ccc(-c3cc(C)c(=O)n(C)c3)cc12 (stereo not shown) [Example 12, 5-(2-Amino-4-(4-ethoxy-1-hydroxy-2-(pyridin-2-yl)butan-2-yl)quinazolin-6-yl)-1,3-dimethylpyridin-2(1H)-one] | 0.038
Cc1cc(-c2ccc3nc(N=S(C)(C)=O)nc(C(CO)(OC4CCC4)c4ccccc4)c3c2)cn(C)c1=O (stereo not shown) [Example 13, 5-(4-(1-Cyclobutoxy-2-hydroxy-1-phenylethyl)-2-((dimethyl (oxo)-16-sulfanylidene)amino)quinazolin-6-yl)-1,3-dimethylpyridin-2(1H)-one] | 0.043
CN1CCC(Oc2nc(C(CO)(OC3CC3)c3ccccc3)c3cc(-c4cn(C)c(=O)c5c4COC5)ccc3n2)CC1 (stereo not shown) [Example 14, 7-(4-(1-Cyclopropoxy-2-hydroxy-1-phenylethyl)-2-((1-methylpiperidin-4-yl)oxy)quinazolin-6-yl)-5-methyl-3,5-dihydrofuro[3,4-c]pyridine-4(1H)-one] | 0.038
Cc1cc(-c2ccc3nc(N)nc(C(CO)(OC4CC4)c4cccs4)c3c2)cn(C)c1=O (stereo not shown) [Example 15, 5-(2-Amino-4-(1-cyclopropoxy-2-hydroxy-1-(thiophen-2-yl)ethyl)quinazolin-6-yl)-1,3-dimethylpyridin-2(1H)-one] | 0.039
CCOC(CO)(c1ccccc1)c1nc(C(N)=O)cc2ccc(-c3cc(C)c(=O)n(C)c3)cc12 (stereo not shown) [Example 16, 7-(1,5-Dimethyl-6-oxo-1,6-dihydropyridin-3-yl)-1-(1-ethoxy-2-hydroxy-1-phenylethyl)isoquinoline-3-carboxamide] | 0.035
Cc1cc(-c2ccc3nc(CNS(C)(=O)=O)nc(C(CO)(OC4CC4)c4ccccc4)c3c2)cn(C)c1=O (stereo not shown) [Example 18, N-((4-(1-Cyclopropoxy-2-hydroxy-1-phenylethyl)-6-(1,5-dimethyl-6-oxo-1,6-dihydropyridin-3-yl)quinazolin-2-yl)methyl)methanesulfonamide] | 0.047
Cc1cc(-c2ccc3nc(N=S(C)(C)=O)nc(C(CO)(OC(C)C)c4ccccc4)c3c2)cn(C)c1=O (stereo not shown) [Example 19, 5-(2-((Dimethyl(oxo)-16-sulfanylidene)amino)-4-(2-hydroxy-1-isopropoxy-1-phenylethyl)quinazolin-6-yl)-1,3-dimethylpyridin-2(1H)-one] | 0.031
Cc1cc(-c2ccc3nc(N)nc(C(CO)(CC4CC4)c4cccnc4)c3c2)cn(C)c1=O (stereo not shown) [Example 20, 5-(2-Amino-4-(1-cyclopropyl-3-hydroxy-2-(pyridin-3-yl)propan-2-yl)quinazolin-6-yl)-1,3-dimethylpyridin-2(1H)-one] | 0.035
COc1ccc(CC(CO)(c2ccccn2)c2nc(N=S(C)(C)=O)nc3ccc(-c4cc(C)c(=O)n(C)c4)cc23)cc1F (stereo not shown) [Example 21, 5-(2-((Dimethyl(oxo)-16-sulfanylidene)amino)-4-(1-(3-fluoro-4-methoxyphenyl)-3-hydroxy-2-(pyridin-2-yl)propan-2-yl)quinazolin-6-yl)-1,3-dimethylpyridin-2(1H)-one] | 0.061
COCCC(CO)(c1ccccc1)c1nc(N=S(C)(C)=O)nc2ccc(-c3cc(C)c(=O)n(C)c3)cc12 (stereo not shown) [Example 22, 5-(2-((Dimethyl(oxo)-16-sulfanylidene)amino)-4-(1-hydroxy-4-methoxy-2-phenylbutan-2-yl)quinazolin-6-yl)-1,3-dimethylpyridin-2(1H)-one] | 1.6
Cc1cc(-c2ccc3nc(N=S(C)(C)=O)nc(C(CO)(Cc4ccccc4)c4ccccc4)c3c2)cn(C)c1=O (stereo not shown) [Example 23, 5-(2-((Dimethyl(oxo)-16-sulfanylidene)amino)-4-(1-hydroxy-2,3-diphenylpropan-2-yl)quinazolin-6-yl)-1,3-dimethylpyridin-2(1H)-one] | 0.034
Cc1cc(-c2ccc3nc(N)nc(C(CO)(Cc4ccccc4)c4ncccn4)c3c2)cn(C)c1=O (stereo not shown) [Example 24, 5-(2-Amino-4-(1-hydroxy-3-phenyl-2-(pyrimidin-2-yl)propan-2-yl)quinazolin-6-yl)-1,3-dimethylpyridin-2(1H)-one] | 0.043
